Test system: hepatic apoptosis-related genes
Experiment: Hepatic gene expression by RT2 Profiler PCR Array in APAP overdosed mice
Format: in vivo, C57BL/6J mice
Details: liver, APAP 350 mg/kg mice, 24 h
Protocol: A composition comprising 25 mg/kg of 25HC3S sodium salt in vehicle was administered intravenously to the experimental mice 0.5 hours after APAP administration. Mortality was monitored in the high dose mice. In the low dose mice, the liver function markers aspartate aminotransferase (AST), alanine aminotransferase (ALT), alkaline phosphatase (ALK) and lactate dehydrogenase (LDH), were measured in serum. Impacts on gene expression were determined by Quantitative Real-time PCR. Membrane potentials were measured using JC1 staining and flow cytometry.
Changes in gene regulation in low dose mice 24 hours after the administration of vehicle and vehicle plus 25HC3S were investigated. The 12-week-old male C57BL/6J mice had received 350 mg/kg APAP via intraperitoneal injection and 30 min later received 7.6% glucose/H2O (C) or vehicle (20% PG/4% HCD/7.6% glucose, P) or 25HC3S (3S). Twenty four hours following APAP injection, liver tissue was harvested and total mRNA was extracted and analyzed using an RT^2 Profiler™ PCR Array assay. The listed genes are involved in apoptosis and/or immune system regulation.

## C[C@H](CCCC(C)(C)O)[C@H]1CC[C@H]2[C@@H]3CC=C4C[C@@H](OS(=O)(=O)[O-])CC[C@]4(C)[C@H]3CC[C@]12C.[Na+] [25HC3S, 5-cholesten-3, 25-diol, 3-sulfate]
Vs P (vehicle) group
  Cd40 (NM_011611) gene expression, Fold vs P: −2.7 Fold
  Fasl (NM_010177) gene expression, Fold vs P: −2.6 Fold
  Gadd45a (NM_007836) gene expression, Fold vs P: −10.9 Fold
  Nol3 (NM_030152) gene expression, Fold vs P: 3.6 Fold
  Pvr (NM_027514) gene expression, Fold vs P: −3.3 Fold
  Tnf (NM_013693) gene expression, Fold vs P: −2.4 Fold
Vs control (C) group
  Apaf1 (NM_009741) gene expression, Fold vs C: −2.2 Fold
  Cd40 (NM_011611) gene expression, Fold vs C: −2.1 Fold
  Fasl (NM_010177) gene expression, Fold vs C: −2.1 Fold
  Gadd45a (NM_007836) gene expression, Fold vs C: −9.3 Fold
  Nol3 (NM_030152) gene expression, Fold vs C: 5.3 Fold
  Pvr (NM_027514) gene expression, Fold vs C: −3.9 Fold
  Tnfrsf11b (NM_008764) gene expression, Fold vs C: −2.9 Fold

Reference: US20230047788A1, “COMPOSITIONS COMPRISING 5-CHOLESTEN-3, 25-DIOL, 3-SULFATE (25HC3S) OR PHARMACEUTICALLY ACCEPTABLE SALT THEREOF AND AT LEAST ONE CYCLIC OLIGOSACCHARIDE” (Virginia Commonwealth University, priority 2016, published 2023)
